Results reported in ChEMBL document CHEMBL5500343, “Activity refinement of aryl amino acetamides that target the P. falciparum STAR-related lipid transfer 1 protein” (Eur J Med Chem, 2024).
≈ marks a conversion by molar mass, not a printed value.

Legend:
Plasmodium falciparum [1] = test: Antimalarial activity against chloroquine and mefloquine resistant Plasmodium falciparum 7G8 assessed as reduction in parasite growth incubated for 72 hrs by [3H]-hypoxanthine incorporation assay; format: functional, organism-based
Plasmodium falciparum [2] = test: Antimalarial activity against asexual blood stage Plasmodium falciparum 3D7 assessed as reduction in parasite growth incubated for 72 hrs by LDH assay; format: functional, organism-based; conditions: 3D7, 72 h
Plasmodium falciparum [3] = test: Antimalarial activity against chloroquine and mefloquine resistant Plasmodium falciparum RF12 assessed as reduction in parasite growth incubated for 72 hrs by [3H]-hypoxanthine incorporation assay; format: functional, organism-based
Plasmodium falciparum [4] = test: Antimalarial activity against DSM-265 resistant Plasmodium falciparum Dd2 harboring DHODH C276F mutant assessed as reduction in parasite growth incubated for 72 hrs by [3H]-hypoxanthine incorporation assay; format: functional, organism-based
Plasmodium falciparum [5] = test: Antimalarial activity against chloroquine and mefloquine resistant Plasmodium falciparum NF54 assessed as reduction in parasite growth incubated for 72 hrs by [3H]-hypoxanthine incorporation assay; format: functional, organism-based
[6] = Lipophilicity, LogD of compound in 1-Octanol and PBS at pH 7.4 at 7.5 uM incubated for 2 hrs shake flask method based LC-MS/MS analysis; format: physicochemical; conditions: 1-octanol/PBS
Plasmodium falciparum [7] = test: Antimalarial activity against DDD-107498 resistant Plasmodium falciparum Dd2 harboring eEF2 Y86N mutant assessed as reduction in parasite growth incubated for 72 hrs by [3H]-hypoxanthine incorporation assay; format: functional, organism-based
Plasmodium falciparum [8] = test: Antimalarial activity against ELQ-300 resistant Plasmodium falciparum Dd2 harboring Cyt b I22L mutant assessed as reduction in parasite growth incubated for 72 hrs by [3H]-hypoxanthine incorporation assay; format: functional, organism-based
Plasmodium falciparum [9] = test: Antimalarial activity against KAF-156 resistant Plasmodium falciparum Dd2 harboring CARL I1139K mutant assessed as reduction in parasite growth incubated for 72 hrs by [3H]-hypoxanthine incorporation assay; format: functional, organism-based
[10] = Kinetic aqueous solubility of the compound in PBS at pH 7.4 incubated for 2 hr under shaking condition by shake flask based UV reader plate analysis; format: physicochemical; conditions: read-out: Kinetic_solubility
Plasmodium falciparum [11] = test: Antimalarial activity against MMV-048 resistant Plasmodium falciparum Dd2 harboring PI4K S743T mutant assessed as reduction in parasite growth incubated for 72 hrs by [3H]-hypoxanthine incorporation assay; format: functional, organism-based
Plasmodium falciparum [12] = test: Antimalarial activity against atovaquone resistant Plasmodium falciparum TM90-C2B assessed as reduction in parasite growth incubated for 72 hrs by [3H]-hypoxanthine incorporation assay; format: functional, organism-based
Plasmodium falciparum [13] = test: Antimalarial activity against chloroquine and mefloquine resistant Plasmodium falciparum K1 assessed as reduction in parasite growth incubated for 72 hrs by [3H]-hypoxanthine incorporation assay; format: functional, organism-based
HepG2 = test: Cytotoxicity against human HepG2 cells assessed as reduction in cell viability incubated for 48 hrs by Cell Titer-Glo assay; format: functional, cell-based; conditions: HepG2, 48 h
[14] = Intrinsic clearance in human liver microsomes at 1 uM incubated upto 60 mins in presence of NADPH by LC-MS/MS analysis; format: ADME, Microsome; conditions: read-out: CLH
Plasmodium falciparum [15] = test: Antimalarial activity against Plasmodium falciparum Dd2 assessed as reduction in parasite growth incubated for 72 hrs by [3H]-hypoxanthine incorporation assay; format: functional, organism-based
[16] = Intrinsic clearance in rat hepatocyte measured per 10^6 cells at 1 uM incubated upto 90 mins by LC-MS/MS analysis; format: ADME, cell-based; conditions: rat hepatocytes, read-out: CLH
Plasmodium falciparum [17] = test: Binding affinity to recombinant Plasmodium falciparum START1 assessed as change in entropy at 10 uM by isothermal titration calorimetry
Plasmodium falciparum [18] = test: Antimalarial activity against MMV006833 resistant Plasmodium falciparum 3D7 assessed as reduction in parasite growth incubated for 72 hrs by LDH assay; format: functional, organism-based; conditions: 3D7, 72 h
Plasmodium falciparum [19] = test: Antimalarial activity against MMV006833 resistant Plasmodium falciparum 3D7 harboring START1 N330K mutant assessed as reduction in parasite growth incubated for 72 hrs by LDH assay; format: functional, organism-based; conditions: 3D7, 72 h
[20] = Binding affinity to recombinant Plasmodium falciparum START1 assessed as dissociation constant by isothermal titration calorimetry
Plasmodium falciparum [21] = test: Binding affinity to recombinant Plasmodium falciparum START1 assessed as change in enthalpy at 10 uM by isothermal titration calorimetry
Plasmodium falciparum [22] = test: Antimalarial activity against MMV006833 resistant Plasmodium falciparum 3D7 harboring START1 N309K mutant assessed as reduction in parasite growth incubated for 72 hrs by LDH assay; format: functional, organism-based; conditions: 3D7, 72 h

SMILES: O=C(CNc1ccc(Cl)c(S(=O)(=O)N2CCOCC2)c1)Nc1ccc(F)c(Cl)c1
- EC50 (Plasmodium falciparum [1]): 26 nM
- EC50 (Plasmodium falciparum [2]): 80 nM
- EC50 (Plasmodium falciparum [3]): 32 nM
- EC50 (Plasmodium falciparum [4]): 20 nM
- EC50 (Plasmodium falciparum [5]): 42 nM
- logD at 2 h, 7.5 µM [6]: 2.2
- EC50 (Plasmodium falciparum [7]): 28 nM
- EC50 (Plasmodium falciparum [8]): 24 nM
- EC50 (Plasmodium falciparum [9]): 26 nM
- solubility kinetic at 2 h [10]: 19 µM (≈ 8.78 µg/mL)
- EC50 (Plasmodium falciparum [11]): 28 nM
- EC50 (Plasmodium falciparum [12]): 31 nM
- EC50 (Plasmodium falciparum [13]): 48 nM
- EC50 (HepG2): > 40000 nM
- microsomal CLint at 1 µM [14]: > 462 µL/min/mg
- EC50 (Plasmodium falciparum [15]): 54 nM
- hepatocyte CLint at 1 µM [16]: > 92 µL/min/1e6 cells

SMILES: O=C(CNc1ccc(Cl)c(S(=O)(=O)N2CCOCC2)c1)Nc1cccc(OC(F)(F)F)c1
- EC50 (Plasmodium falciparum [2]): 5000 nM
- EC50 (HepG2): 19800 nM

SMILES: O=C(CNc1ccc(Cl)c(S(=O)(=O)N2CCOCC2)c1)Nc1cccc(Cl)n1
- EC50 (Plasmodium falciparum [2]): 8900 nM
- EC50 (HepG2): > 40000 nM

SMILES: CC(=O)N1CCN(S(=O)(=O)c2cc(NCC(=O)Nc3ccc(F)c(Cl)c3)ccc2Cl)CC1
- EC50 (Plasmodium falciparum [2]): 9100 nM
- EC50 (HepG2): > 40000 nM

SMILES: Cc1ccc(NCC(=O)Nc2cccc(Cl)c2)cc1S(=O)(=O)N1CCOCC1
- EC50 (Plasmodium falciparum [2]): 360 nM
- EC50 (HepG2): > 40000 nM

SMILES: C[C@@H](Nc1ccc(Cl)c(S(=O)(=O)N2CCOCC2)c1)C(=O)Nc1ccc(F)c(Cl)c1
- -TdeltaS (Plasmodium falciparum [17]): 6.7 kcal/mol
- EC50 (Plasmodium falciparum [2]): 320 nM
- EC50 (Plasmodium falciparum [18]): 99 nM
- EC50 (Plasmodium falciparum [19]): 4400 nM
- Kd [20]: 138 nM
- deltaH (Plasmodium falciparum [21]): -16.1 kcal/mol
- EC50 (Plasmodium falciparum [22]): 4300 nM
- EC50 (HepG2): > 40000 nM

SMILES: CC1CCN(S(=O)(=O)c2cc(NCC(=O)Nc3ccc(F)c(Cl)c3)ccc2Cl)CC1
- EC50 (Plasmodium falciparum [2]): 260 nM
- EC50 (HepG2): 26800 nM

SMILES: CCC(C)[C@H](Nc1ccc(Cl)c(S(=O)(=O)N2CCOCC2)c1)C(=O)Nc1ccc(F)c(Cl)c1 (some centres not stated)
- EC50 (Plasmodium falciparum [2]): 27 nM
- EC50 (Plasmodium falciparum [18]): 15 nM
- EC50 (Plasmodium falciparum [19]): 1600 nM
- EC50 (Plasmodium falciparum [22]): 2100 nM
- EC50 (HepG2): 10900 nM

SMILES: O=C(Nc1ccc(F)c(Cl)c1)C(Nc1ccc(Cl)c(S(=O)(=O)N2CCOCC2)c1)c1ccccc1 (racemic)
- EC50 (Plasmodium falciparum [2]): 6300 nM
- EC50 (HepG2): 19300 nM

SMILES: O=C(NCCN1CCCC1)c1cc(-c2ccc(CN3CCOCC3)cc2)nc2ccc(F)cc12 [CABAMIQUINE]
- EC50 (Plasmodium falciparum [7]): 850 nM

SMILES: C[C@@H](Nc1ccc(Cl)c(S(=O)(=O)N2CCOCC2)c1)C(=O)Nc1cncc(Cl)c1
- EC50 (Plasmodium falciparum [2]): 1100 nM
- EC50 (HepG2): > 40000 nM

SMILES: O=C(CNc1ccc(F)c(S(=O)(=O)N2CCOCC2)c1)Nc1ccc(F)c(Cl)c1
- EC50 (Plasmodium falciparum [2]): 400 nM

SMILES: CN1CCC(NS(=O)(=O)c2cc(NCC(=O)Nc3ccc(F)c(Cl)c3)ccc2Cl)CC1
- EC50 (Plasmodium falciparum [2]): > 10000 nM
- EC50 (HepG2): > 40000 nM

SMILES: Cc1cc(Cl)c(S(=O)(=O)N2CCOCC2)cc1OCC(=O)NC1CCCCC1
- EC50 (Plasmodium falciparum [2]): 1600 nM
- EC50 (HepG2): > 40000 nM

SMILES: CC(C)CC(Nc1ccc(Cl)c(S(=O)(=O)N2CCOCC2)c1)C(=O)Nc1ccc(F)c(Cl)c1 (racemic)
- EC50 (Plasmodium falciparum [2]): 850 nM
- EC50 (HepG2): 9500 nM

SMILES: CCC[C@H](Nc1ccc(Cl)c(S(=O)(=O)N2CCOCC2)c1)C(=O)Nc1ccc(F)c(Cl)c1
- EC50 (Plasmodium falciparum [2]): 140 nM
- EC50 (HepG2): 16300 nM

SMILES: CN(C)C1CCN(S(=O)(=O)c2cc(NCC(=O)Nc3ccc(F)c(Cl)c3)ccc2Cl)CC1
- EC50 (Plasmodium falciparum [2]): > 10000 nM
- EC50 (HepG2): > 40000 nM

SMILES: N#Cc1cccc(NC(=O)CNc2ccc(Cl)c(S(=O)(=O)N3CCOCC3)c2)c1
- EC50 (Plasmodium falciparum [2]): 1500 nM
- EC50 (HepG2): > 40000 nM

SMILES: Cc1cc(Cl)c(S(=O)(=O)N2CCCC2)cc1OCC(=O)NC1CCCCC1
- Kd [20]: 42 nM

SMILES: O=C(COc1ccc(Cl)c(S(=O)(=O)N2CCOCC2)c1)NC1CCCCC1
- EC50 (Plasmodium falciparum [2]): 4300 nM
- EC50 (HepG2): > 40000 nM

SMILES: COc1cc2[nH]c(C)c(-c3ccc(Oc4ccc(OC(F)(F)F)cc4)cc3)c(=O)c2cc1Cl
- EC50 (Plasmodium falciparum [8]): 180 nM
- EC50 (Plasmodium falciparum [15]): 21 nM

SMILES: Cc1ccc(NCC(=O)Nc2cccc(C(F)(F)F)c2)cc1S(=O)(=O)N1CCOCC1
- EC50 (Plasmodium falciparum [2]): 3800 nM
- EC50 (HepG2): > 40000 nM

SMILES: O=C(Nc1ccc(F)c(Cl)c1)[C@@H]1CCCCN1c1ccc(Cl)c(S(=O)(=O)N2CCOCC2)c1
- EC50 (Plasmodium falciparum [2]): 420 nM
- EC50 (HepG2): 21000 nM
